Data on 13 compounds can be found in patent publication US5272147A, “Pyrazolopyrimidinone antianginal agents” (Pfizer Inc., priority 1991, dated 1993).

Assay type in all cases: biochemical
Test [1] relates to Ca/CAM-independent cGMP PDE. In words: Phosphodiesterase activity: inhibition of calcium/calmodulin (Ca/CAM)-independent cGMP PDE from rabbit platelets. The following applies: between Ca/CAM-independent cGMP PDE and cGMP-inhibited cAMP PDE (IC50 cAMP / IC50 cGMP). The protocol:
(§1) Compound affinities for cGMP and cAMP PDEs are assessed by determination of their IC50 value (the concentration of inhibitor required for 50% inhibition of enzyme activity). The PDE enzymes are isolated from rabbit platelets and rat kidney, essentially by the method of W. J. Thompson et al. (Biochem., 1971, 10, 311). The calcium/calmodulin (Ca/CAM)-independentcGMP PDE and the cGMP-inhibited cAMP PDE enzymes are obtained from rabbit platelets whilst, of the four major PDE enzymes of the rat kidney, the Ca/CAM-dependent cGMP PDE (fraction I) is isolated. Assays are performed using a modification of the "batch" method of W. J. Thompson and M. M. Appleman (Biochem., 1979, 18, 5228).

For test [2], the target named is T1, Ca/CAM-independent cGMP PDE (Oryctolagus cuniculus, UniProt G1SX67).
T1 construct: The PDE enzymes are isolated from rabbit platelets and rat kidney; from tissue; host or cells: rabbit platelets
The test is described as above. The following applies: in vitro; Ca/CAM-independent cGMP PDE from rabbit platelets. The protocol: as §1

The target of the next test is T2, cGMP-inhibited cAMP PDE (Oryctolagus cuniculus, UniProt G1ST54).
T2 construct: The PDE enzymes are isolated from rabbit platelets and rat kidney; from tissue; host or cells: rabbit platelets
T2 sequence (G1ST54 1-1128): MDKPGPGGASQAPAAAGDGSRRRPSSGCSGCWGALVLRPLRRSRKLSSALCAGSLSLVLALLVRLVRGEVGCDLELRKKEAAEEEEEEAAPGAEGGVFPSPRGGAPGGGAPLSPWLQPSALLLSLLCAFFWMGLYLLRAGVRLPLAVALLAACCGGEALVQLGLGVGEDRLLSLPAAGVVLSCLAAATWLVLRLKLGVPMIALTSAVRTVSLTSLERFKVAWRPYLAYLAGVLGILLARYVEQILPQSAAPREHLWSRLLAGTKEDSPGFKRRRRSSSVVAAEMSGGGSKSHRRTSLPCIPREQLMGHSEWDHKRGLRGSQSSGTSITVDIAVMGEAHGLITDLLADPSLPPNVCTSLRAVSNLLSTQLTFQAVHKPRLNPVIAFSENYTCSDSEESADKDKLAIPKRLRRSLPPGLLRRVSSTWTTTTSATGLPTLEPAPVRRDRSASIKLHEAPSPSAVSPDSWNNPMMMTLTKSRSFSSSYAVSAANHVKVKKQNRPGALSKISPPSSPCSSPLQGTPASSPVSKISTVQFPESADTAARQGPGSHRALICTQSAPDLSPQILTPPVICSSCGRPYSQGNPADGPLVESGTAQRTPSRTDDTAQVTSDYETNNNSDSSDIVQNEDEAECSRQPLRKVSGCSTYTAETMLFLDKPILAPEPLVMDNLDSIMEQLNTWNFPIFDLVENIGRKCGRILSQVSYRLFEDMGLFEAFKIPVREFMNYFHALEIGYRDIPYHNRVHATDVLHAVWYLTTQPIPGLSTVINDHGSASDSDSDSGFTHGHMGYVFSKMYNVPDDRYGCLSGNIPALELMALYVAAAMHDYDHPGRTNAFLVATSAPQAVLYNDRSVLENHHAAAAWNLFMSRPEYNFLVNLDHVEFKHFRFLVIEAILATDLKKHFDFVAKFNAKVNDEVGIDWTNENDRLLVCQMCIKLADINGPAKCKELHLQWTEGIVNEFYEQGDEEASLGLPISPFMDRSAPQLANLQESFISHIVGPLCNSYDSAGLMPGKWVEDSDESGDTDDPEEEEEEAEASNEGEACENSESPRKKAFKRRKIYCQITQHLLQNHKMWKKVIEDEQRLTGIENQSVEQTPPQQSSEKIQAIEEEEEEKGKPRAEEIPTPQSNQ
As to the kind of experiment: Phosphodiesterase activity: inhibition of cGMP-inhibited cAMP PDE from rabbit platelets. The note with it: in vitro. The protocol:
as §1

The IC50 is the concentration at which inhibition is half-maximal. Consider `CCCc1nn(C)c2c(=O)[nH]c(-c3cc(/C=C/C(=O)N(C)C)ccc3OCC)nc12` [Example 25, (E)-4-Ethoxy-3(1-methyl-3-n-propyl-1,6-dihydro-7H-pyrazolo[4,3-d]-pyrimidin-5-yl)cinnamic acid dimethylamide], for which the “SELECTIVITY RATIO” value in test [1] was 24,705. In addition, the results for the IC50 (in test [2]; against cGMP-inhibited cAMP PDE) were 0.0034 µM and 84 µM, respectively.

Take `CCCc1nn(C)c2c(=O)[nH]c(-c3cc(C(=O)O)ccc3OCC)nc12` [Example 29, 4-Ethoxy-3-(-1-methyl-3-n-propyl-1,6-dihydro-7H-pyrazolo[4,3-d]-pyrimidin-5-yl)benzoic acid]: the “SELECTIVITY RATIO” value in test [1] is reported as 15,272. For the same compound, the IC50 came to 0.0055 µM in test [2] and 84 µM on cGMP-inhibited cAMP PDE.

On to `CCCc1nn(C)c2c(=O)[nH]c(-c3cc(-n4ccnc4)ccc3OCC)nc12` [Example 31, 5-[2-Ethoxy-5-(1-imidazolyl)phenyl]-1-methyl-3-n-propyl-1,6-dihydro-7H-pyrazolo[4,3-d]-pyrimidin-7-one], for which, in test [1], the “SELECTIVITY RATIO” value is 16,470. The IC50 in test [2] came to 0.0034 µM; against cGMP-inhibited cAMP PDE it was 56 µM.

Consider `CCCOc1ccc(/C=C/C(=O)O)cc1-c1nc2c(CCC)nn(C)c2c(=O)[nH]1` [Example 20, (E)-3-(1-Methyl-7-oxo-3-n-propyl-1,6-dihydro-7H-pyrazolo[4,3-d]-pyrimidin-5-yl)-4-n-propoxycinnamic acid], for which, in test [1], the “SELECTIVITY RATIO” value is recorded as 15,945. For the same compound, the half-inhibitory concentration (IC50) was found to be 0.0037 µM in test [2] and 59 µM on cGMP-inhibited cAMP PDE.

`CCCc1nn(C)c2c(=O)[nH]c(-c3cc(C(=O)N4CCN(C)CC4)ccc3OCC)nc12` [Example 30, 5-[2-Ethoxy-5-(4-methylpiperazinylcarbonyl)phenyl]-1-methyl-3-n-propyl-1,6-dihydro-7H-pyrazolo[4,3-d]-pyrimidin-7-one]: the half-maximal inhibitory concentration (IC50) in test [2] is 0.0014 µM; against cGMP-inhibited cAMP PDE, 58 µM.

`CCCOc1ccc(COCCO)cc1-c1nc2c(CCC)nn(C)c2c(=O)[nH]1` [Example 39, 5-[5-(2-Hydroxyethoxymethyl)-2-n-propoxyphenyl]-1-methyl-3-n-propyl-1,6-dihydro-7H-pyrazolo[4,3-d]-pyrimidin-7-one]: in test [1], the “SELECTIVITY RATIO” value is reported as 10,188. Besides, the half-maximal inhibitory concentration (IC50) in test [2] came out at 0.0053 µM; on cGMP-inhibited cAMP PDE it was 54 µM.

With `CCCc1nn(C)c2c(=O)[nH]c(-c3cc(-c4nccn4C)ccc3OCC)nc12` [Example 32, 5-[2-ethoxy-5-(1-methyl-2-imidazolyl)phenyl]-1methyl-3-n-propyl-1,6-dihydro-7H-pyrazolo[4,3-d]pyrimidin-7-one], the “SELECTIVITY RATIO” value in test [1] is on record as 27,142. The IC50 in test [2] came to 0.0014 µM; at cGMP-inhibited cAMP PDE it was 38 µM.

For `CCCOc1ccc(C(=O)CN2CCN(C)CC2)cc1-c1nc2c(CCC)nn(C)c2c(=O)[nH]1` [Example 15, 1-Methyl-5-[5-(4-methyl-1-piperazinylacetyl)-2n-propoxyphenyl]-3-n-propyl-1,6-dihydro-7H-pyrazolo [4,3-d]pyrimidin-7-one], the “SELECTIVITY RATIO” value in test [1] is 22,058. Further, the results for the IC50 (in test [2]; at cGMP-inhibited cAMP PDE) were 0.0034 µM and 75 µM, respectively.

In the case of `CCCOc1ccc(C(=O)CN2CCOCC2)cc1-c1nc2c(CCC)nn(C)c2c(=O)[nH]1` [Example 14, 1-Methyl-5-(5-morpholinoacetyl-2-n-propoxyphenyl)-3-n-propyl-1,6-dihydro-7H-pyrazolo[4,3-d]pyrimidin-7-one], the “SELECTIVITY RATIO” value in test [1] is 57,000. Moreover, the half-inhibitory concentration (IC50) in test [2] worked out at 0.001 µM; on cGMP-inhibited cAMP PDE, 57 µM.

Regarding `CCCc1nn(C)c2c(=O)[nH]c(-c3cc(C(=O)CN4CCOCC4)ccc3OCC)nc12` [Example 4, 5-(2-ethoxy-5-morpholinoacetylphenyl)-1-methyl-3-n-propyl-1,6dihydro-7H-pyrazolo[4,3-d]pyrimidin-7-one], the “SELECTIVITY RATIO” value in test [1] is recorded as 35,000. Besides, the IC50 in test [2] was 0.0018 µM; on cGMP-inhibited cAMP PDE it was 63 µM.

`CCCc1nn(C)c2c(=O)[nH]c(-c3cc(C(O)CN4CCOCC4)ccc3OCC)nc12` (centres unmarked) [Example 11]: the “SELECTIVITY RATIO” value in test [1] is 11,632. Besides, the IC50 in test [2] stood at 0.0049 µM; at cGMP-inhibited cAMP PDE it was 57 µM.

For the compound `CCCc1nn(C)c2c(=O)[nH]c(-c3cc(C(=O)CN4CCN(C(C)=O)CC4)ccc3OCC)nc12` [Example 3, 5-[5-(4-acetyl-1-piperazinyl)acetyl-2-ethoxyphenyl]-1-methyl-3-n-propyl-1,6-dihydro-7H-pyrazolo[4,3-d]pyrimidin-7-one], the “SELECTIVITY RATIO” value in test [1] was 39,090. Further, the concentration for half-maximal inhibition (IC50) in test [2] stood at 0.0022 µM; on cGMP-inhibited cAMP PDE, 86 µM.

For `CCCOc1ccc(C(O)CN2CCOCC2)cc1-c1nc2c(CCC)nn(C)c2c(=O)[nH]1` (centres unmarked) [Example 16, 5-[5-(1-Hyroxy-2-morpholinoethyl)-2-n-propoxyphenyl]-1-methyl-3-n-propyl-1,6-dihydro-7H-pyrazolo[4,3-d]pyrimidin-7-one], the “SELECTIVITY RATIO” value in test [1] is reported as 14,324. The IC50 in test [2] amounted to 0.0037 µM; against cGMP-inhibited cAMP PDE, 53 µM.
